In patent US20230339886A1 (University of Florida Research Foundation, Incorporated, priority 2020, published 2023) one finds EC50 data, which are given here for 33 compounds.

Structures are written as SMILES.

T1 sequence (P20393 with tags, fused parts or gaps DEL324-422): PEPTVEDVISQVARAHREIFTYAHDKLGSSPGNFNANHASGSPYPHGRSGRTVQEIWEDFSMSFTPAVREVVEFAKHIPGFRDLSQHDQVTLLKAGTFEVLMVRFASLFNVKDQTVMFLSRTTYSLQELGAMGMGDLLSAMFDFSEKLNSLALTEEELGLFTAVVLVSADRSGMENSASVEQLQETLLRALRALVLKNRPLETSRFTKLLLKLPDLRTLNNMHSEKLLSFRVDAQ
T1 sequence (Q9Y618 2335-2356 partner limits assumed): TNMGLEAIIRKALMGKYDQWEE

One assay has as its target T1, REV-ERBα LBD (human; residues 281-614 Δ324-422) (Homo sapiens, UniProt P20393, DEL324-422).
T1 construct: 6×Histag-REV-ERBα LBD (human; residues 281-614 Δ324-422); made in house; host or cells: Escherichia coli
In words: TR-FRET corepressor interaction assay (REV-ERBα LBD, FITC-SMRT peptide). In kind it is biochemical. The following applies: FITC-SMRT peptide, read-out: REVERBα agonism (EC50 class, FRET assay). The procedure, abridged:
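Compound serial dilutions (in DMSO, triplicate) incubated 2 h at 4 °C; Tb donor excited at 340 nm, emission read at 495 nm and FITC acceptor at 520 nm. TR-FRET ratio (520/495 nm) plotted against ligand concentration and fitted to a sigmoidal dose-response curve.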
`CC(C)(C)Cn1cc([C@H](NS(=O)(=O)C2CCC2)C(F)(F)F)c2cc(F)c(-c3cnccc3C#N)cc21` [Example 441, (S)—N-(1-(6-(4-cyanopyridin-3-yl)-5-fluoro-1-neopentyl-1H-indol-3-yl)-2,2,2-trifluoroethyl)cyclobutanesulfonamide]: the half-maximal effective concentration (EC50) (usually the concentration at which the effect is half-maximal) was under 500 nM.
Consider `CC(C)(C)Cn1cc(CCNS(=O)(=O)C2CC2)c2ccc(-c3ccc(Cl)cc3C#N)cc21` [Example 482, N-(2-(6-(4-chloro-2-cyanophenyl)-1-neopentyl-1H-indol-3-yl)ethyl)cyclopropanesulfonamide], for which the concentration giving a half-maximal response (EC50) was under 500 nM.
On the same count and under the same terms, for `CC(C)(C)Cn1cc([C@H](NS(=O)(=O)C2CCC2)C(F)(F)F)c2ccc(-c3ccc(F)cc3C(F)(F)F)cc21` [Example 497, (S)—N-(2,2,2-trifluoro-1-(6-(4-fluoro-2-(trifluoromethyl)phenyl)-1-neopentyl-1H-indol-3-yl)ethyl)cyclobutanesulfonamide] the value was under 500 nM; for `CC(C)Cn1cc([C@H](NS(=O)(=O)C2CC2)C(F)(F)F)c2cc(F)c(-c3cscn3)cc21` [Example 457, N-[(1S)-2,2,2-trifluoro-1-(5-fluoro-1-isobutyl-6-thiazol-4-yl-indol-3-yl)ethyl]cyclopropanesulfonamide], 500 to 3000 nM; for `CC(C)(C)Cn1cc([C@H](NS(=O)(=O)C2CC2)C(F)(F)F)c2cc(F)c(-c3ccccc3C(F)(F)F)nc21` [Example 524, (S)—N-(2,2,2-trifluoro-1-(5-fluoro-1-neopentyl-6-(2-(trifluoromethyl)phenyl)-1H-pyrrolo[2,3-b]pyridin-3-yl)ethyl)cyclopropanesulfonamide], under 500 nM.
Turning to `CC(C)(O)Cn1cc([C@H](NS(=O)(=O)C2CC2)C(F)(F)F)c2cc(F)c(-c3ccccc3C(F)(F)F)cc21` [Example 474, N-[(1S)-2,2,2-trifluoro-1-[5-fluoro-1-(2-hydroxy-2-methyl-propyl)-6-[2-(trifluoromethyl)phenyl]indol-3-yl]ethyl]cyclopropanesulfonamide], the EC50 fell in the range of 500 to 3000 nM.
The same measure, in the same setting: the figure for `CC(C)(C)Cn1cc([C@H](NS(=O)(=O)C2CCC2(F)F)C(F)(F)F)c2ccc(-c3ccccc3C(F)(F)F)cc21` (stereo partly drawn) [Example 537, 2,2-difluoro-N—((S)-2,2,2-trifluoro-1-(1-neopentyl-6-(2-(trifluoromethyl)phenyl)-1H-indol-3-yl)ethyl)cyclobutane-1-sulfonamide] is over 3000 nM.
On the same count and under the same terms, for `CC(C)(C)Cn1cc([C@H](NS(=O)(=O)C2CC2)C(F)(F)F)c2ccc(-c3c(F)cccc3C#N)cc21` [Example 460, (S)—N-(1-(6-(2-cyano-6-fluorophenyl)-1-neopentyl-1H-indol-3-yl)-2,2,2-trifluoroethyl)cyclopropanesulfonamide] the value was under 500 nM; for `CC(C)(C)Cn1cc([C@H](NS(=O)(=O)C2CC2)C(F)(F)F)c2ccc(-c3ccccc3C#N)cc21` [Example 462, (S)—N-(1-(6-(2-cyanophenyl)-1-neopentyl-1H-indol-3-yl)-2,2,2-trifluoroethyl)cyclopropanesulfonamide], under 500 nM.

The same assay, now with this note: Table 2, read-out: REVERBα agonism (EC50 class, FRET assay).
`CN(C)S(=O)(=O)NCCc1cn(Cc2cccc(C(F)(F)F)c2)c2cc(-c3ccncc3)ccc12` [Example 142, N-{2-[6-(pyridin-4-yl)-1-(3-trifluoromethylbenzyl)-1H-indol-3-yl]ethyl}-N,N-dimethyl-sulfuric diamide]: the half-maximal effective concentration (EC50) was 500 to 3000 nM.
The same measure, in the same setting: the figure for `CC(C)Cc1cn(C2CCN(S(=O)(=O)C(C)C)C2)c2ccc(-c3ccncc3)cc12` (stereo not drawn) [Compound 44] is 500 to 3000 nM; for `COc1ccc2c(CCN(C)S(=O)(=O)N(C)C)cn(CC(C)C)c2c1` [Example 117, N-{2-[6-methoxyl-1-(2-methylpropyl)-1H-indol-3-yl]ethyl}-N-methyl-N,N-dimethyl sulfuric diamide] it is over 3000 nM.
Still for that read-out and setting: for `Cc1cn[nH]c1-c1cc2c(cc1F)c([C@H](NS(=O)(=O)C1CC1)C(F)(F)F)cn2CC(C)(C)C` [Example 381, N-[(1S)-1-[1-(2,2-dimethylpropyl)-5-fluoro-6-(4-methyl-1H-pyrazol-5-yl)indol-3-yl]-2,2,2-trifluoro-ethyl]cyclopropanesulfonamide] the value was 500 to 3000 nM; for `CC(C)Cn1cc(C(C)CNS(=O)(=O)C2CC2)c2ccc(-c3ccncc3)cc21` (stereo not drawn) [Compound 253], 500 to 3000 nM; for `CN(C)S(=O)(=O)NCCc1cn(Cc2ccccc2)c2cc(-c3ccncc3)ccc12` [Compound 8], under 500 nM.
Consider `Cc1cccc(Cl)c1-c1ccc2c([C@H](NS(=O)(=O)C3CC3)C(F)(F)F)cn(CC(C)(C)C)c2c1` [Example 388, (S)—N-(1-(6-(2-chloro-6-methylphenyl)-1-neopentyl-1H-indol-3-yl)-2,2,2-trifluoroethyl)cyclopropanesulfonamide], for which the EC50 is under 500 nM.
`CN(C)S(=O)(=O)NCCn1cc(CC(F)(F)F)c2cc(Cl)ccc21` [Example 152, N-{2-[5-chloro-3-(2,2,2-trifluoroethyl)-1H-indol-1-yl]ethyl}-N,N-dimethylsulfuric diamide]: the EC50 was 500 to 3000 nM.
Turning to `CCCn1cc(CCNS(=O)(=O)N(C)C)c2ccc(-c3ccncc3)cc21` [Compound 6], the EC50 is under 500 nM.
The same measure, in the same setting: for `CC(C)Cc1cn(CCN(C)S(=O)(=O)C2CC2)c2ncc(-c3ccncc3)cc12` [Example 126, N-(2-(3-isobutyl-5-(pyridin-4-yl)-1H-pyrrolo[2,3-b]pyridin-1-yl)ethyl)-N-methylcyclopropanesulfonamide] the value was 500 to 3000 nM; for `CC(C)(C)Cn1cc([C@H](NS(=O)(=O)C2CC2)C(F)(F)F)c2ccc(-c3c(F)cccc3C(F)(F)F)cc21` [Example 373, (S)—N-(2,2,2-trifluoro-1-(6-(2-fluoro-6-(trifluoromethyl)phenyl)-1-neopentyl-1H-indol-3-yl)ethyl)cyclopropanesulfonamide], under 500 nM; for `CC(C)Cn1cc(C(C)(C)CNS(=O)(=O)N(C)C)c2ccc(-c3ccncc3)cc21` [Example 177, dimethyl({2-methyl-2-[1-(2-methylpropyl)-6-(pyridin-4-yl)-1H-indol-3-yl]propyl}sulfamoyl)amine], 500 to 3000 nM.
On the same count and under the same terms, the figure for `CC(C)Cn1cc(CCNS(=O)(=O)N(C)C)c2ccc(-n3cccn3)cc21` [Example 92, N-{2-[6-(1H-pyrazol-1-yl)-1-(2-methylpropyl)-1H-indol-3-yl]ethyl}-N,N-dimethylsulfuric diamide] is 500 to 3000 nM; for `N#CC1(Cn2cc([C@H](NS(=O)(=O)C3CCC3)C(F)(F)F)c3ccc(-c4ccccc4C(F)(F)F)nc32)CC1` [Example 414, (S)—N-(1-(1-((1-cyanocyclopropyl)methyl)-6-(2-(trifluoromethyl)phenyl)-1H-pyrrolo[2,3-b]pyridin-3-yl)-2,2,2-trifluoroethyl)cyclobutanesulfonamide] it is under 500 nM; for `CN(C)S(=O)(=O)NCCc1cn(Cc2cccc(Cl)c2)c2cc(-c3ccncc3)ccc12` [Example 141, N-{2-[6-(pyridin-4-yl)-1-(3-chlorobenzyl)-1H-indol-3-yl]ethyl}-N,N-dimethylsulfuric diamide] it is under 500 nM.
Same read-out and setting: the figure for `CC(C)(C)Cn1cc([C@H](NS(=O)(=O)C2CC2)C(F)(F)F)c2cc(F)c(-c3ccc(F)cc3C(F)(F)F)cc21` [Example 355, (S)—N-(2,2,2-trifluoro-1-(5-fluoro-6-(4-fluoro-2-(trifluoromethyl)phenyl)-1-neopentyl-1H-indol-3-yl)ethyl)cyclopropanesulfonamide] is under 500 nM.
Take `O=S(=O)(N[C@@H](c1cn(CC2CC2)c2cc(-c3ccccc3C(F)(F)F)c(F)cc12)C(F)(F)F)C1CC1` [Example 349, (S)—N-(1-(1-(cyclopropylmethyl)-5-fluoro-6-(2-(trifluoromethyl)phenyl)-1H-indol-3-yl)-2,2,2-trifluoroethyl)cyclopropanesulfonamide]: the EC50 was under 500 nM.
The same measure, in the same setting: for `CC(C)Cn1cc(CNS(=O)(=O)N(C)C)c2ccc(-c3ccncc3)cc21` [Compound 238] the value was 500 to 3000 nM; for `CC(C)(C)Cn1cc([C@H](NS(=O)(=O)C2CCCC2)C(F)(F)F)c2cc(F)c(-c3ccccc3C(F)(F)F)cc21` [Example 372, (S)—N-(2,2,2-trifluoro-1-(5-fluoro-1-neopentyl-6-(2-(trifluoromethyl)phenyl)-1H-indol-3-yl)ethyl)cyclopentanesulfonamide], 500 to 3000 nM; for `CC(C)Cn1cc(CCNS(=O)(=O)N(C)C)c2ccc(-c3ccccc3F)cc21` [Example 56, N-{2-[6-(2-fluorophenyl)-1-(2-methylpropyl)-1H-indol-3-yl]ethyl}-N,N-dimethylsulfuric diamide], 500 to 3000 nM.
For the compound `CC(=O)N1CCC(c2ccc3c(CCNS(=O)(=O)N(C)C)cn(CC(C)C)c3c2)CC1` [Compound 103, 1-[4-(3-{2-[(dimethylsulfamoyl)amino]ethyl}-1-(2-methylpropyl)-1H-indol-6-yl)piperidin-1-yl]ethan-1-one], the EC50 was over 3000 nM.
Same read-out and setting: for `CC(C)(C)Cc1cn(CCNS(=O)(=O)C2CC2)c2ccc(-c3cccc4ccccc34)cc12` [Example 209, N-(2-(5-(naphthalen-1-yl)-3-neopentyl-1H-indol-1-yl)ethyl)cyclopropane-sulfonamide] the value was under 500 nM; for `CC(C)Cn1cc(CCNS(=O)(=O)N(C)C)c2ccc(-n3ccnc3)cc21` [Example 93, N-{2-[6-(1H-imidazol-1-yl)-1-(2-methylpropyl)-1H-indol-3-yl]ethyl}-N,N-dimethylsulfuric diamide], 500 to 3000 nM; for `CC(C)Cn1cc([C@H](NS(=O)(=O)C2CC2)C(F)(F)F)c2ccc(Cl)cc21` [Example 341, (S)—N-(1-(6-chloro-1-isobutyl-1H-indol-3-yl)-2,2,2-trifluoroethyl)cyclopropanesulfonamide], under 500 nM.
